Test results from ChEMBL document CHEMBL4483862, “Open-source discovery of chemical leads for next-generation chemoprotective antimalarials” (2018).

Test system: Plasmodium berghei
Test: Luciferase/luciferin-expressing antifolate-resistant parasites were used to infect a culture of HepG2 cells that were pre-incubated with compounds. Infected hepatocytes emit light due to the luciferase reaction. Assay results are presented as the percent inhibition of light emission compared to control. […]
Type: functional
Details: sporozoite; for IC90: read-out: LUCIFERASE INFECTION ASSAY - IC90

`CN(C)Cc1nc(O)c2c(n1)-c1ccccc1CC2(C)C` showed an IC50 (PBLUC_HILL_SLOPE 13.2, PBLUC_R_SQUARED 0.272, read-out: LUCIFERASE INFECTION ASSAY - IC50) of 3.66 µM and an IC90 of 4.32 µM.

For `CCOCc1c(C(=O)NC2=C(C(=O)OCC)C(CC)=Nc3ccccc3N2)oc2ccccc12`, the IC50 (PBLUC_HILL_SLOPE 13.2, PBLUC_R_SQUARED 0.167, read-out: LUCIFERASE INFECTION ASSAY - IC50) was 7.46 µM and the IC90 was 8.81 µM.

In the case of `Cc1cc(C)nc(-n2nc(C)cc2Nc2ccccc2)n1`, the IC50 (PBLUC_HILL_SLOPE 12.8, PBLUC_R_SQUARED 0.114, read-out: LUCIFERASE INFECTION ASSAY - IC50) is reported as over 10 µM and the IC90 is reported as over 10 µM.

`Cc1ccc2nc(-c3ccc(NC(=S)NCC(C)(C)CN(C)C)cc3)sc2c1` was tested, and the IC50 (PBLUC_HILL_SLOPE 12.9, PBLUC_R_SQUARED 0.101, read-out: LUCIFERASE INFECTION ASSAY - IC50) was 9.07 µM and the IC90 was over 10 µM.

`CCc1c(C(=O)NCC2CCS(=O)(=O)C2)cnn1-c1ccc(C)cc1` (stereo not given) gave an IC50 (PBLUC_HILL_SLOPE 12.8, PBLUC_R_SQUARED 0.197, read-out: LUCIFERASE INFECTION ASSAY - IC50) of over 10 µM and an IC90 of over 10 µM.

With `CC(=O)c1cc2c(N)c(-c3nc(C(C)(C)C)no3)sc2nc1C` the IC50 (PBLUC_HILL_SLOPE 13.1, PBLUC_R_SQUARED 0.312, read-out: LUCIFERASE INFECTION ASSAY - IC50) was 3.31 µM and the IC90 was 3.91 µM.

For `CCOc1ccc(-c2nc(CC(=O)NCc3ccnc(OC)c3)cs2)cc1`, the IC50 (PBLUC_HILL_SLOPE 12.8, PBLUC_R_SQUARED 0.477, read-out: LUCIFERASE INFECTION ASSAY - IC50) was 2.91 µM and the IC90 was 3.46 µM.

`CC(=O)c1cnc2sc(C(=O)OC3CCCCC3)c(C)c2c1` was tested, and the IC50 (PBLUC_HILL_SLOPE 13.1, PBLUC_R_SQUARED 0.209, read-out: LUCIFERASE INFECTION ASSAY - IC50) was 3.28 µM and the IC90 was 3.88 µM.

`CC(C)Cc1ccc(C(Nc2ccc3nnnn3n2)C(C)C)cc1` (stereo not given) gave an IC50 (PBLUC_HILL_SLOPE 13.1, PBLUC_R_SQUARED 0.631, read-out: LUCIFERASE INFECTION ASSAY - IC50) of 3.23 µM and an IC90 of 3.82 µM.

`Cc1ccc(Nc2cc(-c3ccc(CC(C)C)cc3)ncn2)cc1NS(C)(=O)=O` gave an IC50 (PBLUC_HILL_SLOPE 12.9, PBLUC_R_SQUARED 0.53, read-out: LUCIFERASE INFECTION ASSAY - IC50) of 7.03 µM and an IC90 of over 8.04 µM.

`CC1(c2ccc(F)cc2)NC(=O)N(Cc2csc(-c3ccc(F)cc3)n2)C1=O` (stereo not given) gave an IC50 (PBLUC_HILL_SLOPE 12.9, PBLUC_R_SQUARED 0.121, read-out: LUCIFERASE INFECTION ASSAY - IC50) of 9.44 µM and an IC90 of over 10 µM.

`O=C(CSCCc1nc(-c2ccc(Cl)cc2)cs1)N/N=C/c1ccccc1` was tested, and the IC50 (PBLUC_HILL_SLOPE 13.2, PBLUC_R_SQUARED 0.406, read-out: LUCIFERASE INFECTION ASSAY - IC50) was 2.9 µM and the IC90 was 3.43 µM.

`O=C(CN1CCC(Cc2ccccc2)CC1)NCc1ccc(F)cc1` showed an IC50 (PBLUC_HILL_SLOPE 12.9, PBLUC_R_SQUARED 0.271, read-out: LUCIFERASE INFECTION ASSAY - IC50) of 3.43 µM and an IC90 of 4.07 µM.

`Cc1nn(C)c(C)c1NC(=O)C(C)Sc1nnc(Nc2ccc(Oc3ccccc3)cc2)s1` (stereo not given) gave an IC50 (PBLUC_HILL_SLOPE 13, PBLUC_R_SQUARED 0.117, read-out: LUCIFERASE INFECTION ASSAY - IC50) of 8.97 µM and an IC90 of over 10 µM.

In the case of `CC(Nc1ccc(N(C)C(C)C)c(F)c1)C(=O)N1CCCC1` (stereo not given), the IC50 (PBLUC_HILL_SLOPE 12.8, PBLUC_R_SQUARED 0.621, read-out: LUCIFERASE INFECTION ASSAY - IC50) is reported as 7.89 µM and the IC90 is reported as 9.36 µM.

`CC(C)(C)c1ccc(Oc2ccc(/C=C/C(=O)c3ccc(NC4=NCCCS4)cc3)cc2[N+](=O)[O-])cc1` showed an IC50 (PBLUC_HILL_SLOPE 13, PBLUC_R_SQUARED 0.461, read-out: LUCIFERASE INFECTION ASSAY - IC50) of 8.77 µM and an IC90 of over 10 µM.

Compound `FC(F)Sc1ccc(Nc2ncnc3sccc23)cc1` has an IC50 (PBLUC_HILL_SLOPE 12.8, PBLUC_R_SQUARED 0.441, read-out: LUCIFERASE INFECTION ASSAY - IC50) of 9.17 µM and an IC90 of over 10 µM.

In the case of `Cc1onc(-c2ccccc2)c1-c1ccnn1C(=O)Nc1cccc(C(F)(F)F)c1`, the IC50 (PBLUC_HILL_SLOPE 13.1, PBLUC_R_SQUARED 0.207, read-out: LUCIFERASE INFECTION ASSAY - IC50) is reported as 7.19 µM and the IC90 is reported as over 8 µM.

`CC1CCc2c(C(=O)Nc3cccc(Br)c3)csc2C1` (stereo not given) showed an IC50 (PBLUC_HILL_SLOPE 12.9, PBLUC_R_SQUARED 0.0655, read-out: LUCIFERASE INFECTION ASSAY - IC50) of 9.3 µM and an IC90 of over 9.42 µM.

With `O=C(Nc1cc(-c2cccs2)nn1-c1ccc(I)cc1)C1CCC1` the IC50 (PBLUC_HILL_SLOPE 12.7, PBLUC_R_SQUARED 0.261, read-out: LUCIFERASE INFECTION ASSAY - IC50) was 6.21 µM and the IC90 was over 7.34 µM.

`O=C(Oc1ccc(/C=N/Nc2nc3ccccc3s2)c(OC(=O)c2ccco2)c1)c1ccco1` showed an IC50 (PBLUC_HILL_SLOPE 13.1, PBLUC_R_SQUARED 0.411, read-out: LUCIFERASE INFECTION ASSAY - IC50) of 9.2 µM and an IC90 of over 10 µM.

`CO/N=C/NC(=O)/C(C#N)=C/N(C)C` was tested, and the IC50 (PBLUC_HILL_SLOPE 13.3, PBLUC_R_SQUARED 0.155, read-out: LUCIFERASE INFECTION ASSAY - IC50) was 14.6 µM and the IC90 was over 16.8 µM.

With `C=CCn1c2ccccc2n2nc(C)c(C(=O)/C=C/c3ccccn3)c12` the IC50 (PBLUC_HILL_SLOPE 13.1, PBLUC_R_SQUARED 0.157, read-out: LUCIFERASE INFECTION ASSAY - IC50) was 3.42 µM and the IC90 was 4.04 µM.

In the case of `N#Cc1ccc(-c2cnc3cnc(-c4cccc(C(N)=O)c4)cn23)cc1`, the IC50 (PBLUC_HILL_SLOPE 12.9, PBLUC_R_SQUARED 0.447, read-out: LUCIFERASE INFECTION ASSAY - IC50) is reported as 7.32 µM and the IC90 is reported as 8.67 µM.

Work on `C/C(=N\NC(=S)NCC(C)(C)C)c1cc(F)cc(Cl)c1O` yielded an IC50 (PBLUC_HILL_SLOPE 12.9, PBLUC_R_SQUARED 0.356, read-out: LUCIFERASE INFECTION ASSAY - IC50) of 9.7 µM and an IC90 of over 9.94 µM.

Work on `CC(C)c1ccc(-n2c(Sc3ccc(C(F)(F)F)cc3[N+](=O)[O-])nnc2-c2ccc(C(C)(C)C)cc2)cc1` yielded an IC50 (PBLUC_HILL_SLOPE 12.8, PBLUC_R_SQUARED 0.26, read-out: LUCIFERASE INFECTION ASSAY - IC50) of 5.26 µM and an IC90 of over 6.1 µM.

With `Clc1ccc(-c2n[nH]cc2CNCC2CN(Cc3ccccc3)CCO2)cc1` (stereo not given) the IC50 (PBLUC_HILL_SLOPE 12.9, PBLUC_R_SQUARED 0.0772, read-out: LUCIFERASE INFECTION ASSAY - IC50) was 9.51 µM and the IC90 was over 10 µM.

In the case of `Cc1ccc(C(=O)NC(C)C)n1C`, the IC50 (PBLUC_HILL_SLOPE 12.7, PBLUC_R_SQUARED 0.475, read-out: LUCIFERASE INFECTION ASSAY - IC50) is reported as 0.376 µM and the IC90 is reported as 0.447 µM.

`O=C(Nc1nc2cc(C(F)(F)F)ccc2n1Cc1ccco1)C1CCC1` gave an IC50 (PBLUC_HILL_SLOPE 12.7, PBLUC_R_SQUARED 0.404, read-out: LUCIFERASE INFECTION ASSAY - IC50) of 3.43 µM and an IC90 of 4.08 µM.

`O=C(CSc1cccc[n+]1[O-])N1N=C2/C(=C/c3ccccc3)CCCC2C1c1ccccc1` (stereo not given) was tested, and the IC50 (PBLUC_HILL_SLOPE 13.0, 1.48, PBLUC_R_SQUARED 0.151, 0.616, read-out: LUCIFERASE INFECTION ASSAY - IC50) was 2.66 µM and the IC90 was 6.17 µM.

`CCC(C)NC(=O)c1c(NC(=O)c2cccc(C(F)(F)F)c2)nc2ccc(C)cn12` (stereo not given) was tested, and the IC50 (PBLUC_HILL_SLOPE 12.7, PBLUC_R_SQUARED 0.269, read-out: LUCIFERASE INFECTION ASSAY - IC50) was 2.52 µM and the IC90 was 2.99 µM.

`CN(C)S(=O)(=O)c1cccc(COC(=O)C2(c3ccc(F)cc3)CCCC2)c1` gave an IC50 (PBLUC_HILL_SLOPE 13, PBLUC_R_SQUARED 0.517, read-out: LUCIFERASE INFECTION ASSAY - IC50) of 8.83 µM and an IC90 of over 10 µM.

`COCCCn1c(Sc2ncc(Br)cc2[N+](=O)[O-])nnc1-c1ccc(C(C)(C)C)cc1` showed an IC50 (PBLUC_HILL_SLOPE 13.2, PBLUC_R_SQUARED 0.0327, read-out: LUCIFERASE INFECTION ASSAY - IC50) of over 6.52 µM and an IC90 of over 6.52 µM.

With `CC(c1ccc(-n2cncn2)cc1)N(C)CC(=O)Nc1ccc(OC(F)(F)F)cc1` (stereo not given) the IC50 (PBLUC_HILL_SLOPE 12.9, PBLUC_R_SQUARED 0.556, read-out: LUCIFERASE INFECTION ASSAY - IC50) was 9.67 µM and the IC90 was over 10 µM.

With `Clc1ccc(-c2nc(-c3ccccc3)c(-c3ccccc3)n2CCc2ccc(Cl)cc2Cl)cc1` the IC50 (PBLUC_HILL_SLOPE 13, PBLUC_R_SQUARED 0.179, read-out: LUCIFERASE INFECTION ASSAY - IC50) was 9.63 µM and the IC90 was over 10 µM.

Compound `CN(C)c1cccc(-c2cnc3cnc(-c4cnn(C)c4)cn23)c1` has an IC50 (PBLUC_HILL_SLOPE 12.7, PBLUC_R_SQUARED 0.283, read-out: LUCIFERASE INFECTION ASSAY - IC50) of 8.89 µM and an IC90 of over 10.4 µM.

Compound `Cc1cc(C(=O)CN(C)Cc2nc(=O)c3ccccc3[nH]2)c(C)n1Cc1ccc(F)cc1` has an IC50 (PBLUC_HILL_SLOPE 13.1, PBLUC_R_SQUARED 0.161, read-out: LUCIFERASE INFECTION ASSAY - IC50) of 8.98 µM and an IC90 of over 10 µM.

Compound `Cc1ccc(NC(=O)Cc2nc(-c3ccc4c(c3)OCO4)cs2)c(C)c1` has an IC50 (PBLUC_HILL_SLOPE 12.9, PBLUC_R_SQUARED 0.436, read-out: LUCIFERASE INFECTION ASSAY - IC50) of 8.84 µM and an IC90 of over 10 µM.

Compound `Cc1ccc(NC(=S)Nc2cccc(C(F)(F)F)c2)c(C)c1` has an IC50 (PBLUC_HILL_SLOPE 13, PBLUC_R_SQUARED 0.213, read-out: LUCIFERASE INFECTION ASSAY - IC50) of 9.86 µM and an IC90 of over 10.2 µM.

`COc1ccc(-c2cnc3cnc(-c4cccs4)cn23)cn1` gave an IC50 (PBLUC_HILL_SLOPE 13.2, PBLUC_R_SQUARED 0.556, read-out: LUCIFERASE INFECTION ASSAY - IC50) of 3.89 µM and an IC90 of 4.6 µM.
